From article PMC6609562, “A new split‐luciferase complementation assay identifies pentachlorophenol as an inhibitor of apoptosome formation” (FEBS Open Bio, 2019)
Where two headings read alike, the source gives them in different places. One block for each molecule: values may come before it.

Legend:
[1] = test system: T1, apoptosome (Nluc/Apaf-1 + Cluc/Apaf-1, cytochrome c, dATP); assay: split-luciferase complementation in S-100 extract; format: biochemical, Homo sapiens; settings: 1.6 uM cytochrome c, 1 mM dATP, 25 °C; unreliable (reporter interference)
T1 construct: gene APAF1; Apaf-1 XL fused by Gly/Ser linker to firefly luciferase fragments (Nluc 1-416; Cluc 394-550 in legend, 395-550 in methods), expressed in HEK 293, S-100 extract
Excerpt: split-luciferase complementation in S-100 extract on apoptosome (Nluc/Apaf-1 + Cluc/Apaf-1, cytochrome c, dATP)

[2] = test system: T1, apoptosome (Nluc/Apaf-1 + Cluc/Apaf-1, cytochrome c, dATP); assay: split-luciferase complementation in S-100 extract; format: biochemical, Homo sapiens
cytochrome c = test system: T2, cytochrome c; assay: thermal stability shift, soluble protein by Coomassie SDS-PAGE; format: binding; settings: destabilization at 58 °C, 1 mg/mL cytochrome c
T2 construct: gene CYCS

[3] = biological target: T3, Cluc-Apaf1 (Apaf-1 XL fused to the C-terminal fragment of firefly luciferase) (human), O14727; assay: split reporter (BiFC, NanoBiT); split firefly luciferase complementation; ice-cold S-100 extracts of Nluc-Apaf1 and Cluc-Apaf1 cells mixed 1:1, with and without 1.6 μM cytochrome c and 1 mM dATP (cytochrome c titrated in one experiment); One-Glo Luciferase Assay System, light read at 25 °C over 15 min; settings: remark: other sources report otherwise
T3 chain: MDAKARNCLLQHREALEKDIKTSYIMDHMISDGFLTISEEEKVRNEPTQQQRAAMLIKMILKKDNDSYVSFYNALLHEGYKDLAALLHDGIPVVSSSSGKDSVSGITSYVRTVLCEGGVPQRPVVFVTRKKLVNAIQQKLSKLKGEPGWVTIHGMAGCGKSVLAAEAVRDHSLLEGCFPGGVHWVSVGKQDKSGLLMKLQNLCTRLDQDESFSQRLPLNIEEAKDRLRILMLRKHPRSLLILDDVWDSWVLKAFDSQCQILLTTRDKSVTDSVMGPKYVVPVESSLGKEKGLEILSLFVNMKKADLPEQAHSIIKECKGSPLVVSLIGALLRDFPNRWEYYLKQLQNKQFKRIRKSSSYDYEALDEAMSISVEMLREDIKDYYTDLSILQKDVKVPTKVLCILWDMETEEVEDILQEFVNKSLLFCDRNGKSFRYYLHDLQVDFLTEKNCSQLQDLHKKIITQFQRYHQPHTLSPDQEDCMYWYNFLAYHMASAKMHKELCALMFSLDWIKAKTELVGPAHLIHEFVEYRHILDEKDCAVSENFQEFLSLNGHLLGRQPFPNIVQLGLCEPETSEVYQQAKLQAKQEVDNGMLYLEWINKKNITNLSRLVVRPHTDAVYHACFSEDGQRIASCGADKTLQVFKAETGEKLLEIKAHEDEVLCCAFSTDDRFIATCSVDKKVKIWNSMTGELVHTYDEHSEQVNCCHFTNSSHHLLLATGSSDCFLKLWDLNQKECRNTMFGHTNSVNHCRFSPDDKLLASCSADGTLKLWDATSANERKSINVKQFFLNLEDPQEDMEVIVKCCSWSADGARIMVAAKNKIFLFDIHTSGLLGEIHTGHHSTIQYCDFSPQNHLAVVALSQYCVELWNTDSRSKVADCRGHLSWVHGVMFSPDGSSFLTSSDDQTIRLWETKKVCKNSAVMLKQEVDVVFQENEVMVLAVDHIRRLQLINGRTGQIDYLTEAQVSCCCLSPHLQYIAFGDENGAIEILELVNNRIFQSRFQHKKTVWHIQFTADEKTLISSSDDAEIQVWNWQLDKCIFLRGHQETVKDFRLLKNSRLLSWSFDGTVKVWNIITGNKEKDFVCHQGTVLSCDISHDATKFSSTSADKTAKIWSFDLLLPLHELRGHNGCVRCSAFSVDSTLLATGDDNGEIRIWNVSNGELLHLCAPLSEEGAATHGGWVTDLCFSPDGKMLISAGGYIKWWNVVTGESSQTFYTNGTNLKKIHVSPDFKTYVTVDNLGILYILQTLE

Molecule: Clc1nc(Cl)nc(Nc2ccccc2Cl)n1 [Anilazine]
- IC50 (mM) / S. luc [1]: 2.99 mM

- IC50 ([2]; diluted extract, cytochrome c and dATP added, read-out: IC50): ~0.17 mM
Molecule: O=C(Nc1cccc(C(F)(F)F)c1)Nc1cc(Cl)ccc1C(=O)O [NS3694, 4‐chloro‐2‐[[3‐(trifluoromethyl)phenyl]carbamoylamino]benzoic acid]

Molecule: Oc1c(Cl)c(Cl)c(Cl)c(Cl)c1Cl [Pentachlorophenol]
- EC50 (cytochrome c): ~600 µM
- IC50 ([2]; 1.6 uM cytochrome c, 1 mM dATP, 25 °C, site assigned to cytochrome c, read-out: IC50 (mM) / S. luc): 0.17 mM

Molecule: CN(C)C1CSSSC1 [Thiocyclam]
- IC50 (mM) / S. luc [1]: 0.20 mM

Molecule: CN(C)C(=S)SSC(=S)N(C)C [Thiram]
- IC50 (mM) / S. luc [1]: 1.38 mM

- EC50 of cytochrome c for split luciferase activity [3]: 0.15 µM
B1: Nluc-Apaf1 (Apaf-1 XL fused to the N-terminal fragment of firefly luciferase), O14727-1 1-1248 (natural protein)
chain: T3 chain
